The results in this text go back to US8691768B2, “Methods of determining delta opioid receptor subtypes” (The Regents of the University of California, priority 2008, dated 2014).

For test [1], the system named is GABAA IPSCs in VTA neurons. Description: Slice electrophysiology, whole-cell patch-clamp of GABAA IPSCs in VTA neurons. Format: cell-based, Lewis rats. A general note: Patch clamp records ionic current or voltage across a cell membrane.
The next test deals with Lewis rats. Put plainly: Cocaine self administration after VTA microinjection. Conditions: 10 mM into VTA, compared to saline. Format: in vivo. How it is done:
Lewis rats (Charles River, Mass.) weighing 275-350 g at the beginning of behavioral testing are housed and treated as previously described. Prior to cocaine self administration, rats are anesthetized with a ketamine-xylazine-acepromazine mixture and implanted with a chronic jugular catheter using methods previously described (Caine & Koob, 1993). Following surgery, rats receive daily administration of the antibiotic ticarcillin (20 mg/day at 100 mg/ml; GlaxoSmithKline, Research Triangle Park, NC). Catheter patency is tested by infusion of the fast-acting barbiturate Brevital (methohexital sodium; 1 mg/0.1 ml; Lilly, Indianapolis, Ind.). Self-administration training is conducted in operant-conditioning chambers enclosed within sound-attenuating cabinets (MED Associates, St. Albans, Vt.). […] Presses on the active lever result in either a 120 microL infusion of cocaine over a 4-s period via a Razel pump (Razel Scientific Instruments, Fairfax, Vt.) or delivery of a 45-mg food pellet (Bio-Serv, Frenchtown, N.J.). […] Presses on the active lever result in a 20-s time-out, signaled by illumination of the stimulus light and retraction of the active lever. […] Following training, rats are microinjected with either 10 mM DPDPE or saline directly into the VTA prior to cocaine self-administration and active lever presses are recorded.

The test system of test [2] is Lewis rats, ventral tegmental area (VTA). Put plainly: Ethanol self-administration (two-bottle continuous access) after microinjection into the VTA. In kind it is in vivo. How it is done: Male Lewis rats (Harlan Laboratories, Indianapolis, Ind.) weighing between 275-300 g were individually housed in a temperature controlled colony room (21° C.) maintained on a reversed light/dark cycle 12L:12D cycle (lights off at 10 A.M., lights on at 10 P.M.). All experiments were performed during the dark portion of the cycle. Food and water was provided ad libitum.
Ethanol was administered via a two-bottle continuous access, free-choice paradigm in which one bottle contained 10% ETOH (v/v) and the other bottle contained water. Sucrose was never added to the ethanol solution. The amount of ETOH and water consumed was measured at the same time daily (10 A.M.). […] Animals were weighed daily. Bottles were identical and their positions were counterbalanced and rotated daily. Change in drinking was calculated by subtracting the amount of drinking (mg/kg) on the day following treatment from the amount of drinking (mg/kg) on the day prior to treatment.
Animals were anesthetized and maintained on isoflurane (0.5 l/min) as needed for the duration of surgery. Animals were placed in a stereotaxic frame and were implanted with bilateral 26-gauge stainless steel chronic guide cannulas (Plastincs One, Roanoke, Va.) into the VTA (AP, −5.8; ML, ±0.5; DV, −7.0) based on the atlas of Paxinos and Watson (1997, The rat brain in sterotaxic coordinates, compact, Ed 3. San Diego: Academic). Cannulas were secured to the skull with dental cement. At the end of the surgical procedure, animals were treated with penicillin and topical antibiotics. A stainless steel dummy cannula (Plastics One) was inserted into each guide cannula and remained in place when the guide cannulas were not in use. Animals were allowed a 1 week recovery period before behavioral testing.
Each injection was made using a 1 μl syringe (Hamilton, Reno, Nev.) attached to 20 cm of PE 50 tubing connected to a 33-gauge injection cannula (Plastics One). Microinjections of 0.5 μl volumes were given at a rate of 0.5 μl/min using a syringe pump (kd Scientific, Hollister, Mass.) into each side of the VTA, except for bicuculline injections, where 0.25 μl was injected per side. Injection cannulas extended 2 mm beyond guide cannulas and were left in place for 1 min following microinjections to minimize the backflow of drug solution. In addition to drug microinjections, physiological saline microinjections were made in every rat to measure the effect of the injection manipulation alone on drinking Drug injections were randomized and counterbalanced. Change in drinking due to drug microinjections was calculated by comparing both the previous day's consumption (“baseline”) and to saline injection. At the conclusion of the experiment, animals were anesthetized with pentobarbital and perfused intracardially through the ascending aorta with 0.1 M phosphate buffered saline followed by 10% formalin. Brains were sectioned coronally at 50 μm, mounted and stained with cresyl violet. Only animals with confirmed injection sites within the VTA were included. No behavioral differences were observed between animals with anterior compared with posterior cannula placements.
For behavioral experiments, DPDPE (10mM; Sigma, St. Louis, Mo.), TIPP-ψ (5 μM; NIDA, Bethesda, Md.), Bicuculline (1 mM; Sigma), DAMGO (0.2 mM; Sigma), and CTOP (10 mM; Tocris, Ellisville, Mo.) were prepared in physiological saline for microinjection into the VTA. For electrophysiology, all drugs were applied by bath perfusion. Stock solutions were made and diluted in artificial CSF immediately before application. All chemicals were obtained from Sigma or Tocris except TIPP-ψ, which was acquired from NIDA.
Results are presented as mean±SEM where appropriate. For behavioral data, drinking was analyzed using 24 h time points. Raw drinking data were used for paired Student's t test comparisons probing drug effects on drinking compared with baseline or saline injections, a more conservative comparison than analyzing normalized data. […]

Where [3] appears, read: 1 μM, VTA neurons from drinking animals.

Turning to “(2-D-penicillamine, 5-D-penicillamine)-enkephalin [DPDPE]”, the “relation between DPDPE induced inhibition of evoked and spontaneous IPSCs and amount of EtOH consumed” value in test [1] was “inverse correlation”. In addition, the “evoked IPSCs” value in test [1] (setting [3]) is listed as “significantly inhibited”. Moreover, the “spontaneous IPSCs” value in test [1] (setting [3]) is reported as “significantly inhibited”. Also, in test [1] (abstinent animals, 3 and 7 days off bottles), the “GABA release onto VTA neurons” value is on record as “maintained its ability to inhibit GABA release”. In test [1] (age-matched, ethanol-naive, control animals), the “GABAA IPSCs” value is on record as “no effect”. In test [1] (dose-response in the animal groups, in presence of 1 μM CTAP), the saturating dose is 1 µM. Moreover, in test [1] (low drinkers), the “GABA release in the VTA” value is recorded as “Decreases GABA Release”. The “cocaine self administration (active lever presses)” value with Lewis rats is “decrease cocaine self administration”. Also, the “drinking (EtOH)” value in test [2] (10 mM into VTA, compared with control saline microinjections in the same rats) was “also evident”; in test [2] (10 mM into VTA, high drinkers), “only at trend level”; in test [2] (10 mM into VTA, low drinkers), “particularly prominent”; in test [2] (10 mM microinjected into VTA, all animals, compared with the day before treatment) it was “decreased drinking”. For the same substance, the “relation between baseline EtOH consumption and % baseline drinking following administration” value in test [2] (10 mM into VTA, n=15) is on record as “inverse correlation”.
